{"source": "patent US20040220198A1", "about": "“Methods for treating malaria by modulation of G protein function” (priority 2002, published 2004)", "key": {"P. falciparum [1]": {"test_system": "P. falciparum", "assay": "Overnight P. falciparum infection assay with C terminal G protein peptides, new ring stage infection scored by Giemsa staining", "assay_type": "cell-based, Plasmodium falciparum", "details": "for effect on erythrocytic infection / new ring formation (words): 500 μM peptide in culture; for % Inhibition of Infection: 500 uM peptide, overnight, compared to mock treated cultures, standard error 10%", "protocol": "FIG. 2. Effects of FITC-Gs peptide and its FITC-Gs-scrambled peptide on erythrocytic infection. Assays containing 500 μM of indicated peptides, their FITC-derived counterparts or solvent alone were added to a standard infection assay (see Table 1). FIG. 3. Cells taken from a standard infection assay incubated with 500 μM FITC-Gs peptide (A) or FITC-Gs scrambled peptide (B) were fixed in formaldehyde, and without permeabilization subjected to an indirect immunofluorescence assay with anti-MSP1 antibody (red, to detect extracellular parasites) and stained with DAPI (blue, to visualize nuclei). Samples were imaged by digitized fluorescence microscopy (FITC signal is green). Infection assays were set up using synchronized cultures of P. falciparum with a starting parasitemia of 6% schizonts. Cultures were incubated with 500 uM of the indicated peptides (Gs, Gs-scrambled, Gq or Gi-reversed) or mock treated (with no peptide) overnight and subsequently scored for new ring stage infection by Giemsa staining of thin blood smears. Infection is shown compared to that of mock treated cultures (containing no peptide)."}, "[2]": {"biological_target": "host Gs coupled receptors of the red cell", "assay": "cell-based or functional assay"}, "[3]": {"test_system": "P. falciparum (strain 3D7)", "assay": "In vitro erythrocytic infection assay with Gs receptor agonists/antagonists, new ring stage infection after 4-6 h", "assay_type": "cell-based, Plasmodium falciparum", "details": "for blocking the stimulation of infection by P. falciparum in vitro: 10 μM isoproterenol or antagonist, 4-6 hours, FIG. 10", "description": "Effects of β-adrenergic receptor agonist (isoproterenol) or antagonist (propranolol) on erythrocyte infection by P. falciparum. Cultures containing 2×10^8 red cells and 2.5×10^6 synchronized segmenters were incubated in 1 ml of 10% medium (10% human serum with RPMI) with the indicated agonist, antagonist, agonist+antagonist, or mock treated (solvent alone: 1 μl) for 6 h.\nEffects of adenosine receptor agonist (NECA) and antagonist (8-SPT) on infection of erythrocytes by P. falciparum. Cultures were set up as described in FIG. 5, indicated concentrations of NECA, 8-SPT, both or solvent alone were added and infection was scored after 6 h as described.\nEffects of (β-adrenergic and adenosine receptor) agonists and antagonists singly and in combination on in vitro erythrocytic infection by P. falciparum. In vitro infection assays were done with synchronized cultures of P. falciparum (strain 3D7) using standard culture conditions (K. Haldar, M. A. J. Ferguson, G. A. M. Cross, J Biol Chem 260, 4969 (1985)). A starting parasitemia of 2.5% schizonts (44-48 h in development) in 20 μl of red blood cells with 1 ml of 10% human serum in RPMI1640 was used. The cultures were incubated for 4-6 hours in the presence of Gαs protein receptor agonist or antagonist, or vehicle control. All detectable schizonts ruptured, and new ring stage infection was scored by Giemsa staining of thin blood smears.\nIn vitro effect of various β-adrenergic antagonists on inhibition of P. falciparum infection in red blood cells treated with isoproterenol. In vitro infection assays were done with synchronized cultures of P. falciparum (strain 3D7) using standard culture conditions (K. Haldar, M. A. J. Ferguson, G. A. M. Cross, J Biol Chem 260, 4969 (1985)). A starting parasitemia of 2.5% schizonts (44-48 h in development) in 20 μl of red blood cells with 1 ml of 10% human serum in RPMI1640 was used. The cultures were incubated for 4-6 hours in the presence of 10 μM beta-adrenergic receptor agonists or antagonists, or vehicle control. All detectable schizonts ruptured, and new ring stage infection was scored by Giemsa staining of thin blood smears.\nIn vitro infection assays were done with synchronized cultures of P. falciparum (strain 3D7) using standard culture conditions. A starting parasitemia of 2.5% schizonts (44-48 h in development) in 20 μl of red blood cells with 1 ml of 10% human serum in RPMI1640 was used. The cultures were incubated for 4-6 hours in the presence of 10 μM isoproterenol or antagonist, or vehicle control. All detectable schizonts ruptured, and new ring stage infection was scored by Giemsa staining of thin blood smears."}, "P. berghei": {"test_system": "P. berghei", "assay": "Standard 4 day Peters assay, P. berghei in mice, drug intraperitoneally", "assay_type": "in vivo", "details": "for inhibition of parasitemia / P. berghei infection in vivo: mice, day 4 parasitemia", "protocol": "(§1) FIG. 11. […] In vivo mouse experiments were done with P. berghei using a standard 4 day Peters assay (W. Peters, B. L. Robinson, Ann Trop Med Parasitol 78, 561 (1984)). P. berghei and the racemic form of propranolol were administered intraperitoneally; five mice were used per data point. In IC50 studies, 5 data points were taken. Mice were given 5×10^7 parasites on day 0, and indicated concentrations of drug twice a day on days 0-3. Tail bleeds were carried out on day 4 to ascertain parasitemia, after which the animals were sacrificed.\nas §1, with “12.” for “11.”, “ICI 181,551” for “the racemic form of propranolol”\n(§2) In vivo mouse experiments were done with P. berghei using a standard 4 day Peters assay (W. Peters, B. L. Robinson, Ann Trop Med Parasitol 78, 561 (1984)). P. berghei and β2-adrenergic receptor antagonists were administered intraperitoneally; five mice were used per data point. In IC50 studies, 5 data points were taken. Mice were given 5×10^7 parasites on day 0, and indicated concentrations of drug twice a day on days 0-3. Tail bleeds were carried out on day 4 to ascertain parasitemia, after which the animals were sacrificed.\nas §2, with “assay.” for “assay (W. Peters, B. L. Robinson, Ann Trop Med Parasitol 78, 561 (1984)).”, “ICI 181,551” for “β2-adrenergic receptor antagonists”\nas §2, with “assay.” for “assay (W. Peters, B. L. Robinson, Ann Trop Med Parasitol 78, 561 (1984)).”, “the indicated” for “β2-adrenergic receptor”, “point.” for “point. In IC50 studies, 5 data points were taken.”"}, "P. falciparum [4]": {"test_system": "P. falciparum", "assay": "Dose dependent effect of Gs peptide on ring-infected P. falciparum cultures (development to trophozoites and next generation rings)", "assay_type": "cell-based, Plasmodium falciparum", "details": "for effect on parasite growth in culture / new ring formation: extracellular 100-500 μM, Tables I and II", "protocol": "Table II illustrates the dose dependent effect of Gs peptide on inhibition of P. falciparum infection. In this study, ring-infected cultures at 1% parasitemia were incubated with the indicated concentrations of Gs peptides under standard culture conditions and monitored for development to the subsequent trophozoite stage as well as the next generation of ring stage parasites. Parasitemias were detected by Giemsa staining of thin blood smears. Standard error: 10%."}, "P. falciparum [5]": {"test_system": "P. falciparum", "assay": "Preincubation (4 h) of red cells or schizonts with Gs peptide, wash, then overnight infection assay", "assay_type": "cell-based, Plasmodium falciparum", "details": "500 μM, 4 h preincubation of red cells or late stage segmenters/schizonts, FIG. 1; listed as Gs peptide", "protocol": "FIG. 1. Effects of preincubating (for 4 h) red cells or schizonts with Gs peptide on malarial infection. Uninfected red cells or schizonts were resuspended at 2×10^8 cells/ml in RPMI1640 and incubated with 500 μM Gs peptide or mock treated for 4 h at 37° C. The cells were subsequently recovered by centrifugation and washing in peptide-free medium. Washed cells were then subjected to an overnight infection assay (using 4% schizonts to infect the culture) in the absence of peptides."}}, "note": "Entries after “also recorded” stand apart in the source; their conditions may differ. Ends that are not written are not given here."}
{"molecule": "LQLNLKEYNLV (SEQ ID NO: 3) (synthetic C terminal peptide of Gq)", "values": [{"measurement": "effect on erythrocytic infection / new ring formation (words)", "setting": "P. falciparum [1]", "value": "little effect on plasmodial growth; also recorded: no significant effect on infection"}, {"measurement": "% Inhibition of Infection", "setting": "P. falciparum [1]", "value": 20, "unit": "%"}]}
{"molecule": "Gαs peptide (C terminal peptide of the heterotrimeric G protein Gs)", "values": [{"measurement": "% Inhibition of Infection (P. falciparum erythrocytic infection, 500 uM peptide, overnight)", "setting": "[2]", "value": 87, "unit": "%"}, {"measurement": "Day 3 % Ring (new ring stage parasitemia) at 5 µM Gs peptide; 5.2 at 0 µM", "setting": "[2]", "value": 3.8, "unit": "%"}, {"measurement": "Day 3 % Ring (new ring stage parasitemia) at 20 µM Gs peptide; 5.2 at 0 µM", "setting": "[2]", "value": 2.7, "unit": "%"}, {"measurement": "Day 3 % Ring (new ring stage parasitemia) at 50 µM Gs peptide; 5.2 at 0 µM", "setting": "[2]", "value": 1.9, "unit": "%"}, {"measurement": "Day 3 % Ring (new ring stage parasitemia) at 100 µM Gs peptide; 5.2 at 0 µM", "setting": "[2]", "value": 1.4, "unit": "%"}, {"measurement": "Day 3 % Ring (new ring stage parasitemia) at 200 µM Gs peptide; 5.2 at 0 µM", "setting": "[2]", "value": 0.6, "unit": "%"}, {"measurement": "Day 3 % Ring (new ring stage parasitemia) at 500 µM Gs peptide; 5.2 at 0 µM", "setting": "[2]", "value": 0.4, "unit": "%"}]}
{"molecule": "COc1ccc(OC)c(C(O)C(C)NC(C)(C)C)c1", "note": "(centres unmarked) [butoxamine]", "values": [{"measurement": "blocking the stimulation of infection by P. falciparum in vitro", "setting": "[3]", "value": "lower inhibitory effect"}]}
{"molecule": "CC(C)NCC(O)COc1cccc2ccccc12", "note": "(racemic) [racemic propranolol]", "values": [{"measurement": "blocking the stimulation of infection by P. falciparum in vitro", "setting": "[3]", "value": "inhibit agonist-stimulated infection of P. falciparum in vitro"}, {"measurement": "IC90", "setting": "P. berghei; P. berghei infections in mice, twice a day days 0-3, FIG. 11", "value": 85, "unit": "mg/kg/day"}, {"measurement": "inhibition of parasitemia / P. berghei infection in vivo", "setting": "P. berghei", "value": "block P. berghei infections in mice"}]}
{"molecule": "CC(C)NC[C@@H](O)COc1cccc2ccccc12", "note": "(single isomer, unassigned) [inactive isomer of propranolol]", "values": [{"measurement": "P. falciparum growth in culture", "setting": "[3]", "value": "no effect"}, {"measurement": "inhibition of parasitemia / P. berghei infection in vivo", "setting": "P. berghei", "value": "no effect"}]}
{"molecule": "Cc1ccc(OCC(O)C(C)NC(C)C)c2c1CCC2", "note": "(centres unmarked) [ICI 181,551]", "values": [{"measurement": "inhibition of parasitemia / P. berghei infection in vivo", "setting": "P. berghei", "value": "effective at inhibiting parasitemia in vivo"}]}
{"molecule": "NGIKCLFNDKL (SEQ ID NO:4) (synthetic reverse C terminal peptide of Gri) [Gi-reverse, reverse of C terminal peptide of Gi]", "values": [{"measurement": "effect on erythrocytic infection / new ring formation (words)", "setting": "P. falciparum [1]; listed as Gi", "value": "no significant effect on infection"}, {"measurement": "effect on erythrocytic infection / new ring formation (words)", "setting": "P. falciparum [1]; listed as Gri", "value": "little effect on plasmodial growth"}, {"measurement": "% Inhibition of Infection", "setting": "P. falciparum [1]", "value": 6, "unit": "%"}]}
{"molecule": "QRMHLRQYELL (SEQ ID NO:1) (also: acetylated) [Gs]", "values": [{"measurement": "effect on erythrocytic infection / new ring formation (words)", "setting": "P. falciparum [1]", "value": "marked inhibition of new rings; also recorded: significantly reduced erythrocytic infection"}, {"measurement": "% Inhibition of Infection", "setting": "P. falciparum [1]", "value": 87, "unit": "%"}, {"measurement": "% Ring", "setting": "P. falciparum [4]; Day 1, 5 μM Gs Peptide", "value": 1.0, "unit": "%"}, {"measurement": "% Ring", "setting": "P. falciparum [4]; Day 1, 20 μM Gs Peptide", "value": 1.0, "unit": "%"}, {"measurement": "% Ring", "setting": "P. falciparum [4]; Day 1, 50 μM Gs Peptide", "value": 1.0, "unit": "%"}, {"measurement": "% Ring", "setting": "P. falciparum [4]; Day 1, 100 μM Gs Peptide", "value": 1.0, "unit": "%"}, {"measurement": "% Ring", "setting": "P. falciparum [4]; Day 1, 200 μM Gs Peptide", "value": 1.0, "unit": "%"}, {"measurement": "% Ring", "setting": "P. falciparum [4]; Day 1, 500 μM Gs Peptide", "value": 1.0, "unit": "%"}, {"measurement": "% Troph", "setting": "P. falciparum [4]; Day 2, 5 μM Gs Peptide", "value": 0.9, "unit": "%"}, {"measurement": "% Troph", "setting": "P. falciparum [4]; Day 2, 20 μM Gs Peptide", "value": 1.0, "unit": "%"}, {"measurement": "% Troph", "setting": "P. falciparum [4]; Day 2, 50 μM Gs Peptide", "value": 0.9, "unit": "%"}, {"measurement": "% Troph", "setting": "P. falciparum [4]; Day 2, 100 μM Gs Peptide", "value": 0.8, "unit": "%"}, {"measurement": "% Troph", "setting": "P. falciparum [4]; Day 2, 200 μM Gs Peptide", "value": 1.0, "unit": "%"}, {"measurement": "% Troph", "setting": "P. falciparum [4]; Day 2, 500 μM Gs Peptide", "value": 0.9, "unit": "%"}, {"measurement": "% Ring", "setting": "P. falciparum [4]; Day 3, 5 μM Gs Peptide", "value": 3.8, "unit": "%"}, {"measurement": "% Troph", "setting": "P. falciparum [4]; Day 3, 5 μM Gs Peptide", "value": 0.6, "unit": "%"}, {"measurement": "% Ring", "setting": "P. falciparum [4]; Day 3, 20 μM Gs Peptide", "value": 2.7, "unit": "%"}, {"measurement": "% Troph", "setting": "P. falciparum [4]; Day 3, 20 μM Gs Peptide", "value": 0.6, "unit": "%"}, {"measurement": "% Ring", "setting": "P. falciparum [4]; Day 3, 50 μM Gs Peptide", "value": 1.9, "unit": "%"}, {"measurement": "% Troph", "setting": "P. falciparum [4]; Day 3, 50 μM Gs Peptide", "value": 0.3, "unit": "%"}, {"measurement": "% Ring", "setting": "P. falciparum [4]; Day 3, 100 μM Gs Peptide", "value": 1.4, "unit": "%"}, {"measurement": "% Troph", "setting": "P. falciparum [4]; Day 3, 100 μM Gs Peptide", "value": 0.6, "unit": "%"}, {"measurement": "% Ring", "setting": "P. falciparum [4]; Day 3, 200 μM Gs Peptide", "value": 0.6, "unit": "%"}, {"measurement": "% Troph", "setting": "P. falciparum [4]; Day 3, 200 μM Gs Peptide", "value": 0.5, "unit": "%"}, {"measurement": "% Ring", "setting": "P. falciparum [4]; Day 3, 500 μM Gs Peptide", "value": 0.4, "unit": "%"}, {"measurement": "% Troph", "setting": "P. falciparum [4]; Day 3, 500 μM Gs Peptide", "value": 0.5, "unit": "%"}, {"measurement": "effect on parasite growth in culture / new ring formation", "setting": "P. falciparum [4]; listed as Gs peptide", "value": "marked effect on new ring formation"}, {"measurement": "effect on parasite growth in culture / new ring formation", "setting": "P. falciparum [4]; listed as Gαs peptide", "value": "inhibit parasite growth in culture, in a dose dependent manner"}, {"measurement": "extracellular concentrations required for significant inhibition", "setting": "P. falciparum [4]; new ring formation", "value": "> 50", "unit": "µM"}, {"measurement": "effect of preincubation with peptide on infection", "setting": "P. falciparum [5]", "value": "no detrimental effect on infection; also recorded: failed to block infection"}]}
{"molecule": "CC(C)NCC(O)COc1ccc(CC(N)=O)cc1", "note": "(centres unmarked) [altenolol, 4-[2-Hydroxy-3-[(1-methylethyl)amino]-propoxy]benzeneacetamide]", "values": [{"measurement": "blocking the stimulation of infection by P. falciparum in vitro", "setting": "[3]", "value": "almost as effective as propranolol at blocking the stimulation of infection"}]}
{"molecule": "ELRLQHYMQLR (SEQ ID NO:2) (synthetic scrambled G s peptide Gscb1) [Gs-scrambled]", "values": [{"measurement": "effect on erythrocytic infection / new ring formation (words)", "setting": "P. falciparum [1]", "value": "does not block infection"}, {"measurement": "effect on erythrocytic infection / new ring formation (words)", "setting": "P. falciparum [1]; listed as Gscb1", "value": "virtually no effect"}, {"measurement": "% Inhibition of Infection", "setting": "P. falciparum [1]", "value": 4, "unit": "%"}]}
